Data from PubChem BioAssay (NCI).
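Results reflect a 48-hour exposure of cells in 96-well plates to compound at five concentrations. TGI denotes the concentration required for complete inhibition of growth.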

Assays:
Experiment in all cases: NCI tumour cell line growth inhibition, 48 h
786-0 renal = test system: 786-0 renal
A498 renal = test system: A498 renal
A549 NSCLC = test system: A549 NSCLC
ACHN renal = test system: ACHN renal
CAKI-1 renal = test system: CAKI-1 renal
COLO 205 colon = test system: COLO 205 colon
DLD-1 colon = test system: DLD-1 colon
DMS 114 small cell lung = test system: DMS 114 small cell lung
DMS 273 small cell lung = test system: DMS 273 small cell lung
EKVX NSCLC = test system: EKVX NSCLC
HCC-2998 colon = test system: HCC-2998 colon
HCT-116 colon = test system: HCT-116 colon
HCT-15 colon = test system: HCT-15 colon
HOP-18 NSCLC = test system: HOP-18 NSCLC
HOP-62 NSCLC = test system: HOP-62 NSCLC
HOP-92 NSCLC = test system: HOP-92 NSCLC
HT29 colon = test system: HT29 colon
IGROV1 ovarian = test system: IGROV1 ovarian
KM12 colon = test system: KM12 colon
KM20L2 colon = test system: KM20L2 colon
LOX IMVI melanoma = test system: LOX IMVI melanoma
LXFL 529 NSCLC = test system: LXFL 529 NSCLC
M14 melanoma = test system: M14 melanoma
M19-MEL melanoma = test system: M19-MEL melanoma
MALME-3M melanoma = test system: MALME-3M melanoma
MOLT-4 leukemia = test system: MOLT-4 leukemia
NCI-H226 lung = test system: NCI-H226 lung
NCI-H23 lung = test system: NCI-H23 lung
NCI-H460 lung = test system: NCI-H460 lung
OVCAR-3 ovarian = test system: OVCAR-3 ovarian
OVCAR-4 ovarian = test system: OVCAR-4 ovarian
OVCAR-5 ovarian = test system: OVCAR-5 ovarian
OVCAR-8 ovarian = test system: OVCAR-8 ovarian
RXF 393 renal = test system: RXF 393 renal
RXF-631 renal = test system: RXF-631 renal
SF-268 CNS = test system: SF-268 CNS
SF-295 CNS = test system: SF-295 CNS
SF-539 CNS = test system: SF-539 CNS
SK-MEL-2 melanoma = test system: SK-MEL-2 melanoma
SK-MEL-28 melanoma = test system: SK-MEL-28 melanoma
SK-MEL-5 melanoma = test system: SK-MEL-5 melanoma
SK-OV-3 ovarian = test system: SK-OV-3 ovarian
SN12C renal = test system: SN12C renal
SNB-19 CNS = test system: SNB-19 CNS
SNB-75 CNS = test system: SNB-75 CNS
SNB-78 CNS = test system: SNB-78 CNS
SR leukemia = test system: SR leukemia
SW-620 colon = test system: SW-620 colon
TK-10 renal = test system: TK-10 renal
U251 CNS = test system: U251 CNS
UACC-257 melanoma = test system: UACC-257 melanoma
UACC-62 melanoma = test system: UACC-62 melanoma
UO-31 renal = test system: UO-31 renal
XF 498 CNS = test system: XF 498 CNS
CCRF-CEM leukemia = test system: CCRF-CEM leukemia
HL-60(TB) leukemia = test system: HL-60(TB) leukemia
K-562 leukemia = test system: K-562 leukemia
MCF7 breast = test system: MCF7 breast
NCI-H522 lung = test system: NCI-H522 lung
NCI/ADR-RES ovarian = test system: NCI/ADR-RES ovarian
P388 leukemia = test system: P388 leukemia
P388/ADR leukemia = test system: P388/ADR leukemia
RPMI-8226 leukemia = test system: RPMI-8226 leukemia
SN12K1 renal = test system: SN12K1 renal

Measured: TGI

O=C1/C(=C/c2ccccc2)CCCC/C1=C\c1ccccc1
> 100 µM: 786-0 renal | A498 renal | A549 NSCLC | ACHN renal | CAKI-1 renal | COLO 205 colon | DLD-1 colon | DMS 114 small cell lung | DMS 273 small cell lung | EKVX NSCLC | HCC-2998 colon | HCT-116 colon | HCT-15 colon | HOP-18 NSCLC | HOP-62 NSCLC | HOP-92 NSCLC | IGROV1 ovarian | KM12 colon | KM20L2 colon | LOX IMVI melanoma | LXFL 529 NSCLC | M14 melanoma | M19-MEL melanoma | MALME-3M melanoma | MOLT-4 leukemia | NCI-H226 lung | NCI-H23 lung | NCI-H460 lung | OVCAR-3 ovarian | OVCAR-4 ovarian | OVCAR-8 ovarian | RXF-631 renal | SF-268 CNS | SF-295 CNS | SF-539 CNS | SK-MEL-2 melanoma | SK-MEL-28 melanoma | SK-OV-3 ovarian | SN12C renal | SNB-19 CNS | SNB-75 CNS | SNB-78 CNS | SR leukemia | SW-620 colon | TK-10 renal | U251 CNS | UACC-257 melanoma | UACC-62 melanoma | UO-31 renal | XF 498 CNS
70.4 µM: SK-MEL-5 melanoma
32 µM: HT29 colon
59.5 µM: RXF 393 renal
97.1 µM: OVCAR-5 ovarian

CSc1sc(=S)sc1SC
> 90 µM: SNB-75 CNS
> 31.6 µM: HL-60(TB) leukemia | SK-MEL-2 melanoma
> 100 µM: A498 renal | A549 NSCLC | CAKI-1 renal | CCRF-CEM leukemia | COLO 205 colon | DLD-1 colon | DMS 114 small cell lung | DMS 273 small cell lung | EKVX NSCLC | HCC-2998 colon | HCT-116 colon | HCT-15 colon | HOP-18 NSCLC | HOP-62 NSCLC | HOP-92 NSCLC | HT29 colon | IGROV1 ovarian | K-562 leukemia | KM12 colon | KM20L2 colon | LOX IMVI melanoma | M19-MEL melanoma | MALME-3M melanoma | MCF7 breast | MOLT-4 leukemia | NCI-H226 lung | NCI-H23 lung | NCI-H460 lung | NCI-H522 lung | OVCAR-3 ovarian | OVCAR-4 ovarian | OVCAR-5 ovarian | OVCAR-8 ovarian | P388 leukemia | P388/ADR leukemia | RPMI-8226 leukemia | RXF 393 renal | SF-268 CNS | SF-295 CNS | SF-539 CNS | SK-MEL-28 melanoma | SK-MEL-5 melanoma | SK-OV-3 ovarian | SN12C renal | SN12K1 renal | SNB-19 CNS | SNB-78 CNS | SW-620 colon | U251 CNS | UACC-257 melanoma | UACC-62 melanoma | UO-31 renal | XF 498 CNS
54.3 µM: NCI/ADR-RES ovarian
